According to patent publication US7704723B2, “Isolation and characterization of novel clostridial species” (The Board of Regents For Oklahoma State University, priority 2006, dated 2010):
Marks after values point to notes of the source that are not given here.

Columns and labels:
[1] = test system: Clostridium ragsdalei strain P11; assay: Growth of strain P11 on organic and gaseous substrates as sole carbon and energy sources; format: cell-based; conditions: for Growth with substrate: Clostridium ragsdalei, malate and formate examined at pH 5.0-6.5; for Substrate utilization, C. ragsdalei: strain P11, growth on substrate as sole carbon and energy source, final OD600
Protocol: (§1) Except for the deletion of NaHCO3 and an initial pH 6.3, growth on organic and gaseous substrates was performed as previously described (Tanner et. al., 1993). Resazurin (1 mg/L) was used as the redox indicator. Purified agar was added to the medium at a concentration of 2% for colony morphology description (Table 5). Heat labile substrates were filter sterilized (not autoclaved) and added from sterile stock solutions to a final concentration of 5 g/L before inoculation. The optimum temperature and pH (initial pH) was determined in medium containing fructose as the substrate. For determination of the optimum pH, media was buffered with HOMOPIPES (homopiperazine-N,N′-bis-2-[ethanesulfonic acid] (Research Organics, Cleveland, Ohio), MES (2-[N-morpholino]ethanesulfonic acid), or TES (N-tris [hydroxymethyl]methyl-2-aminoethanesulfonic acid) at (1.0 g/L). A 0.1 ml (˜2%) inoculum of fructose-grown cells was used to initiate growth. All media components used in these experiments were obtained from Sigma unless otherwise noted (Sigma Chemical Co., St. Louis, Mo.).
(§2) Analytical methods. […] For the substrate malate, utilization was analyzed by HPLC (“high-performance liquid chromatography”) equipped with a UV detector set at 214 nm using a Alltech, Prevail Organic Acid column (4.6×150 mm, 5 μm; Alltech, Deerfield, Mich.) with a mobile phase of 25 mM KH2PO4, pH 2.5 and 10% (v/v) methanol.

[2] = test system: Clostridium ljungdahlii strain PETC; assay: Growth of reference strain PETC on substrates as sole carbon and energy sources; format: cell-based; conditions: for Substrate utilization, C. ljungdahlii: strain PETC, growth on substrate as sole carbon and energy source, final OD600
Text: Organisms. Clostridium ljundahlii strain PETC was obtained from a fructose stock culture maintained by Dr. Ralph S. Tanner and was used as the reference control strain. Strain P11 was obtained from an anaerobic enrichment inoculated with fresh water sediment from the Duck Pond at the University of Oklahoma by a procedure described previously (Bryant, 1972) under an atmosphere of CO:N2:CO2 (75:15:10) and an initial pH of 6.0. The carbon monoxide oxidizing clostridium described within was named Clostridium ragsdalei. This bacterium was designated strain P11 and deposited with the American Type Culture Collection as strain ATCC BAA-622.
as §1, §2

Molecule: CCCO [1-Propanol]
- Growth with substrate [1]: chemoorganotrophic growth was observed
- Substrate utilization, C. ragsdalei [1]: + (positive (indicates a final OD600 of greater than or equal to 0.1.))
- Substrate utilization, C. ljungdahlii [2]: +^† (positive (indicates a final OD600 of greater than or equal to 0.1.))

Molecule: C[C@H](N)C(=O)O [Alanine]
- Growth with substrate [1]: chemoorganotrophic growth was observed

Molecule: N#C[C@H](O[C@@H]1O[C@H](CO[C@@H]2O[C@H](CO)[C@@H](O)[C@H](O)[C@H]2O)[C@@H](O)[C@H](O)[C@H]1O)c1ccccc1 [Amygdalin]
- Substrate utilization, C. ragsdalei [1]: −
- Substrate utilization, C. ljungdahlii [2]: −

Molecule: O=C[C@@H](O)[C@H](O)[C@H](O)CO [Arabinose]
- Substrate utilization, C. ragsdalei [1]: −

Molecule: N=C(N)NCCC[C@H](N)C(=O)O [Arginine]
- Substrate utilization, C. ragsdalei [1]: −

Molecule: C[N+](C)(C)CC(=O)O [Betaine]
- Substrate utilization, C. ragsdalei [1]: −
- Substrate utilization, C. ljungdahlii [2]: −

Molecule: OC[C@H]1O[C@@H](O[C@H]2[C@H](O)[C@@H](O)[C@H](O)O[C@@H]2CO)[C@H](O)[C@@H](O)[C@@H]1O [Cellibiose]
- Substrate utilization, C. ragsdalei [1]: −
- Substrate utilization, C. ljungdahlii [2]: −

Molecule: O=C[C@@H](O)[C@H](O)CO [D (−) Threose]
- Growth with substrate [1]: chemoorganotrophic growth was observed

Molecule: O=C[C@H](O)[C@H](O)CO [Erythrose]
- Substrate utilization, C. ragsdalei [1]: −
- Substrate utilization, C. ljungdahlii [2]: −

Molecule: O=C(CO)[C@@H](O)[C@H](O)[C@H](O)CO [Fructose]
- Growth with substrate [1]: chemoorganotrophic growth was observed

Molecule: C[C@H](O)[C@@H](O)[C@@H](O)[C@H](O)C=O [Fucose]
- Substrate utilization, C. ragsdalei [1]: −
- Substrate utilization, C. ljungdahlii [2]: −

Molecule: O=C[C@H](O)[C@@H](O)[C@@H](O)[C@H](O)CO [Galactose]
- Substrate utilization, C. ragsdalei [1]: −
- Substrate utilization, C. ljungdahlii [2]: −

Molecule: O=C(O)[C@H](O)[C@@H](O)[C@H](O)[C@H](O)CO [Gluconic acid]
- Substrate utilization, C. ragsdalei [1]: −

Molecule: N[C@@H](CCC(=O)O)C(=O)O [Glutamate]
- Growth with substrate [1]: chemoorganotrophic growth was observed
- Substrate utilization, C. ragsdalei [1]: + (positive (indicates a final OD600 of greater than or equal to 0.1.))
- Substrate utilization, C. ljungdahlii [2]: +^† (positive (indicates a final OD600 of greater than or equal to 0.1.))

Molecule: NC(=O)CC[C@H](N)C(=O)O [Glutamine]
- Substrate utilization, C. ragsdalei [1]: −
- Substrate utilization, C. ljungdahlii [2]: −

Molecule: OCC(O)CO [Glycerol]
- Substrate utilization, C. ragsdalei [1]: −
- Substrate utilization, C. ljungdahlii [2]: −

Molecule: O=C(O)CO [Glycolic acid]
- Substrate utilization, C. ragsdalei [1]: −
- Substrate utilization, C. ljungdahlii [2]: −

Molecule: N[C@@H](Cc1c[nH]cn1)C(=O)O [Histidine]
- Substrate utilization, C. ragsdalei [1]: −

Molecule: O[C@H]1[C@H](O)[C@@H](O)[C@H](O)[C@@H](O)[C@H]1O [Inositol]
- Substrate utilization, C. ragsdalei [1]: −
- Substrate utilization, C. ljungdahlii [2]: −

Molecule: CC(C)O [Iso-propanol]
- Substrate utilization, C. ragsdalei [1]: −
- Substrate utilization, C. ljungdahlii [2]: −

Molecule: O=C[C@H](O)[C@@H](O)CO [L (+) Threose]
- Substrate utilization, C. ragsdalei [1]: −
- Substrate utilization, C. ljungdahlii [2]: −

Molecule: OC[C@H]1O[C@@H](O[C@H]2[C@H](O)[C@@H](O)C(O)O[C@@H]2CO)[C@H](O)[C@@H](O)[C@H]1O (stereo partly shown) [Lactose]
- Substrate utilization, C. ragsdalei [1]: −
- Substrate utilization, C. ljungdahlii [2]: −

Molecule: O=C(O)/C=C\C(=O)O [Maleic acid]
- Substrate utilization, C. ragsdalei [1]: −
- Substrate utilization, C. ljungdahlii [2]: −

Molecule: O=C(O)CC(O)C(=O)O (stereo not shown) [Malic acid]
- Growth with substrate [1]: did not initially support growth
- Substrate utilization, C. ragsdalei [1]: −
- Growth with malate as the sole carbon source after adaptation ([2]; after incubation of about thirty days, pH 5.0-6.5): able to grow
- Substrate utilization, C. ljungdahlii [2]: −

Molecule: OC[C@H]1O[C@H](O[C@H]2[C@H](O)[C@@H](O)[C@H](O)O[C@@H]2CO)[C@H](O)[C@@H](O)[C@@H]1O [Maltose]
- Substrate utilization, C. ragsdalei [1]: −
- Substrate utilization, C. ljungdahlii [2]: −

Molecule: OC[C@@H](O)[C@@H](O)[C@H](O)[C@H](O)CO [Mannitol]
- Substrate utilization, C. ragsdalei [1]: −
- Substrate utilization, C. ljungdahlii [2]: −

Molecule: OC[C@H]1O[C@H](OCC2O[C@@H](O)[C@H](O)[C@@H](O)[C@@H]2O)[C@H](O)[C@@H](O)[C@H]1O (stereo partly shown) [Melibiose]
- Substrate utilization, C. ragsdalei [1]: −
- Substrate utilization, C. ljungdahlii [2]: −

Molecule: OC[C@H]1O[C@@](CO)(O[C@H]2O[C@H](CO)[C@@H](O)[C@H](O)[C@H]2O)[C@@H](O[C@H]2O[C@H](CO)[C@@H](O)[C@H](O)[C@H]2O)[C@@H]1O [Melizitose]
- Substrate utilization, C. ragsdalei [1]: −
- Substrate utilization, C. ljungdahlii [2]: −

Molecule: CO [Methanol]
- Substrate utilization, C. ragsdalei [1]: −
- Substrate utilization, C. ljungdahlii [2]: −

Molecule: CC(=O)[O-].[Na+] [Na-Acetate]
- Substrate utilization, C. ragsdalei [1]: −
- Substrate utilization, C. ljungdahlii [2]: −

Molecule: O=C([O-])CC(O)(CC(=O)[O-])C(=O)[O-].[Na+].[Na+].[Na+] [Na-Citrate]
- Substrate utilization, C. ragsdalei [1]: −
- Substrate utilization, C. ljungdahlii [2]: +* (positive (indicates a final OD600 of greater than or equal to 0.1.))

Molecule: O=C[O-].[Na+] [Na-Formate]
- Growth with substrate [1]: did not initially support growth
- Substrate utilization, C. ragsdalei [1]: −
- Substrate utilization, C. ljungdahlii [2]: −

Molecule: O=C([O-])/C=C/C(=O)[O-].[Na+].[Na+] [Na-Fumarate]
- Substrate utilization, C. ragsdalei [1]: −

Molecule: CC(O)C(=O)[O-].[Na+] (stereo not shown) [Na-Lactate]
- Substrate utilization, C. ragsdalei [1]: −
- Substrate utilization, C. ljungdahlii [2]: −

Molecule: CCC(=O)[O-].[Na+] [Na-Propionate]
- Substrate utilization, C. ragsdalei [1]: −
- Substrate utilization, C. ljungdahlii [2]: −

Molecule: CC(=O)C(=O)O [Na-Pyruvate]
- Growth with substrate [1]: chemoorganotrophic growth was observed

Molecule: O=C([O-])CCC(=O)[O-].[Na+].[Na+] [Na-Succinate]
- Substrate utilization, C. ragsdalei [1]: −
- Substrate utilization, C. ljungdahlii [2]: −

Molecule: C[C@H](O)[C@H](O)[C@@H](O)[C@@H](O)C=O [Rhamnose]
- Substrate utilization, C. ragsdalei [1]: −

Molecule: OCc1ccccc1O[C@@H]1O[C@H](CO)[C@@H](O)[C@H](O)[C@H]1O [Salicin]
- Substrate utilization, C. ragsdalei [1]: −
- Substrate utilization, C. ljungdahlii [2]: −

Molecule: N[C@@H](CO)C(=O)O [Serine]
- Growth with substrate [1]: chemoorganotrophic growth was observed

Molecule: OC[C@@H](O)[C@@H](O)[C@H](O)[C@@H](O)CO [Sorbitol]
- Substrate utilization, C. ragsdalei [1]: −
- Substrate utilization, C. ljungdahlii [2]: −

Molecule: OC[C@H]1O[C@@](CO)(O[C@H]2O[C@H](CO)[C@@H](O)[C@H](O)[C@H]2O)[C@@H](O)[C@@H]1O [Sucrose]
- Growth with substrate [1]: chemoorganotrophic growth was observed

Molecule: OC[C@H]1O[C@H](O[C@H]2O[C@H](CO)[C@@H](O)[C@H](O)[C@H]2O)[C@H](O)[C@@H](O)[C@@H]1O [Trehalose]
- Substrate utilization, C. ragsdalei [1]: −
- Substrate utilization, C. ljungdahlii [2]: −

Molecule: O=C(CO)[C@@H](O[C@H]1O[C@H](CO)[C@@H](O)[C@H](O)[C@H]1O)[C@H](O)[C@H](O)CO [Turanose]
- Substrate utilization, C. ragsdalei [1]: −
- Substrate utilization, C. ljungdahlii [2]: −

Molecule: O=C[C@H](O)[C@@H](O)[C@H](O)CO [Xylose]
- Growth with substrate [1]: chemoorganotrophic growth was observed
- Doubling time ([1]; strain P11 grown with the substrate under optimal conditions): 0.220 h⁻¹

Molecule: O=C(O)CCC(=O)C(=O)O [alpha-ketoglutarate]
- Substrate utilization, C. ragsdalei [1]: −
- Substrate utilization, C. ljungdahlii [2]: + (positive (indicates a final OD600 of greater than or equal to 0.1.))

Molecule: Cellulose
- Substrate utilization, C. ragsdalei [1]: −
- Substrate utilization, C. ljungdahlii [2]: −

Molecule: Glycogen
- Substrate utilization, C. ragsdalei [1]: −
- Substrate utilization, C. ljungdahlii [2]: −

Molecule: Inulin
- Substrate utilization, C. ragsdalei [1]: −
- Substrate utilization, C. ljungdahlii [2]: −

Molecule: Pectin
- Substrate utilization, C. ragsdalei [1]: −
- Substrate utilization, C. ljungdahlii [2]: −

Molecule: Starch
- Substrate utilization, C. ragsdalei [1]: −
- Substrate utilization, C. ljungdahlii [2]: −

Molecule: Trimethoxybenzoic acid
- Substrate utilization, C. ragsdalei [1]: −
- Substrate utilization, C. ljungdahlii [2]: −
